# Patent US20250120927A1, “CNDP2 MODULATORS AND METHODS FOR THEIR USE” (Metabolon Inc., priority 2023, published 2025)
# Counter-ions that a name gives are not always drawn.
# Target: CNDP2 (Homo sapiens (Human), UniProt Q96KP4)
# Assay: CNDP2 enzyme inhibition assay (Met-His hydrolysis, free histidine by o-phthaldialdehyde fluorescence), dose-response
# Type: biochemical
# Conditions: 50 nM purified CNDP2 (Sino Biological), 1 mM Met-His substrate, 30 minutes at 37° C.; TABLE 2
# Protocol: To identify optimal conditions for identifying novel inhibitors of CNDP2, enzyme assays were performed with varied sources of purified enzyme, concentrations of enzyme, peptide substrates, concentrations of peptide substrates and metal cofactors. […] The reaction mixture was incubated for 30 minutes at 37° C. before it was quenched with an equal volume of 1% TCA. Free histidine was quantified after derivatization with a fluorophore (o-phthaldialdehyde from Sigma-Aldrich, excitation 340 nm, emission 460 nm). The reaction was conducted in an automation-friendly format to meet future screening throughput demands. A histidine titration standard curve was also included to enable conversion of fluorescence signal to molar concentration of histidine released by the hydrolysis reaction and to ensure the linearity of the fluorescence signal vs. free histidine.
# Compounds of Formula (I) disclosed herein were screened for potency in inhibiting CNDP2 enzyme activity in a dose-response experiment. Bestatin was included with each batch of test molecules as a benchmark for assay quality control.
# Sequence of CNDP2 (Q96KP4 whole entry): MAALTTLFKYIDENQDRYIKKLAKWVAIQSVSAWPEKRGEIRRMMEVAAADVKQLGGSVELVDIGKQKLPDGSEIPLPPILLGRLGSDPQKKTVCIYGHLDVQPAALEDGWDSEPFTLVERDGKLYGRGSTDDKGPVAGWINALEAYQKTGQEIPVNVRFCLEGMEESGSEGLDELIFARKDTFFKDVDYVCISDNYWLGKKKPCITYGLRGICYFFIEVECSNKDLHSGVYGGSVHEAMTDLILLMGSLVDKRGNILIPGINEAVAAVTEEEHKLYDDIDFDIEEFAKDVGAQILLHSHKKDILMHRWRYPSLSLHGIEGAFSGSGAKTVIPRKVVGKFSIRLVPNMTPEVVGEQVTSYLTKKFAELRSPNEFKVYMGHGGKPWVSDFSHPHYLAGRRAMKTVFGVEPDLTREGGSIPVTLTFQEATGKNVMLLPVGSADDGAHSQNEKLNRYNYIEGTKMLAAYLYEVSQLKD
row,Structure (SMILES),IC50 [nM]
1,N[C@H](Cc1ccccc1)[C@H](O)C(=O)NC(C(=O)O)c1cc(F)cc(C(F)(F)F)c1 (stereo partly drawn) [Compound 68],< 100
2,N[C@H](Cc1ccccc1)[C@H](O)C(=O)NC(C(=O)O)c1ccc(F)c(C(F)(F)F)c1 (stereo partly drawn) [Compound 69],< 100
3,N[C@H](Cc1ccccc1)[C@H](O)C(=O)NC(c1cccc(C(F)(F)F)c1)c1noc(=O)[nH]1 (stereo partly drawn) [Compound 71],100 to 1000
4,N[C@H](Cc1ccccc1)[C@H](O)C(=O)NC(CN1CCC(F)(F)CC1)C(=O)O (stereo partly drawn) [Compound 72],≥ 1000
5,N[C@H](Cc1ccccc1)[C@H](O)C(=O)N[C@@H](CN1CCC(C(F)(F)F)CC1)C(=O)O [Compound 73],≥ 1000
6,N[C@H](Cc1ccccc1)[C@H](O)C(=O)N[C@H](c1cccc(OC(F)(F)F)c1)c1n[nH]c(=O)o1 [Compound 74],≥ 1000
7,N[C@H](Cc1ccccc1)[C@H](O)C(=O)N[C@@H](c1cccc(OC(F)(F)F)c1)c1n[nH]c(=O)o1 [Compound 75],≥ 1000
8,N[C@H](Cc1ccccc1)[C@H](O)C(=O)N[C@@H](C(=O)O)c1cc(C(F)(F)F)ccc1C(F)(F)F [Compound 80],≥ 1000
9,N[C@H](Cc1ccccc1)[C@H](O)C(=O)N[C@H](C(=O)O)c1cc(C(F)(F)F)ccc1C(F)(F)F [Compound 81],≥ 1000
10,N[C@H](Cc1ccccc1)[C@H](O)C(=O)N[C@@H](CN1CCCC(F)(F)C1)C(=O)O [Compound 82],≥ 1000
11,N[C@H](Cc1ccccc1)[C@H](O)C(=O)N[C@@H](CN1CCC(F)(F)C1)C(=O)O [Compound 83],≥ 1000
12,"C[C@](NC(=O)[C@@H](O)[C@H](N)Cc1ccccc1)(C(=O)O)c1cccc(C(F)(F)F)c1 [Compound 84, (R)-2-((2S,3R)-3-amino-2-hydroxy-4-phenylbutanamido)-2-(3-(trifluoromethyl)phenyl)propanoic acid]",≥ 1000
13,"C[C@@](NC(=O)[C@@H](O)[C@H](N)Cc1ccccc1)(C(=O)O)c1cccc(C(F)(F)F)c1 [Compound 85, (S)-2-((2S,3R)-3-amino-2-hydroxy-4-phenylbutanamido)-2-(3-(trifluoromethyl)phenyl)propanoic acid]",≥ 1000
14,"N[C@H](Cc1ccccc1)[C@H](O)C(=O)N[C@@H](C(=O)O)c1cccc(C(F)(F)F)c1Cl [Compound 86, (R)-2-((2S,3R)-3-amino-2-hydroxy-4-phenylbutanamido)-2-(2-chloro-3-(trifluoromethyl)phenyl)acetic acid]",≥ 1000
15,"N[C@H](Cc1ccccc1)[C@H](O)C(=O)N[C@H](C(=O)O)c1cccc(C(F)(F)F)c1Cl [Compound 87, (S)-2-((2S,3R)-3-amino-2-hydroxy-4-phenylbutanamido)-2-(2-chloro-3-(trifluoromethyl)phenyl)acetic acid]",100 to 1000
16,"C[C@@](NC(=O)[C@@H](O)[C@H](N)Cc1ccccc1)(C(=O)O)c1cccc(OC(F)(F)F)c1 [Compound 88, (S)-2-((2S,3R)-3-amino-2-hydroxy-4-phenylbutanamido)-2-(3-(trifluoromethoxy)phenyl)propanoic acid]",≥ 1000
17,"C[C@](NC(=O)[C@@H](O)[C@H](N)Cc1ccccc1)(C(=O)O)c1cccc(OC(F)(F)F)c1 [Compound 89, (R)-2-((2S,3R)-3-amino-2-hydroxy-4-phenylbutanamido)-2-(3-(trifluoromethoxy)phenyl)propanoic acid]",≥ 1000
18,"N[C@H](Cc1ccccc1)[C@H](O)C(=O)N[C@@H](C(=O)O)c1cccc(C(F)(F)F)c1F [Compound 90, (R)-2-((2S,3R)-3-amino-2-hydroxy-4-phenylbutanamido)-2-(2-fluoro-3-(trifluoromethyl)phenyl)acetic acid]",< 100
19,"N[C@H](Cc1ccccc1)[C@H](O)C(=O)N[C@H](C(=O)O)c1cccc(C(F)(F)F)c1F [Compound 91, (S)-2-((2S,3R)-3-amino-2-hydroxy-4-phenylbutanamido)-2-(2-fluoro-3-(trifluoromethyl)phenyl)acetic acid]",100 to 1000
20,"N[C@H](Cc1ccccc1)[C@H](O)C(=O)N[C@@H](C(=O)O)c1cc(F)cc(C(F)(F)F)c1 [Compound 92, (R)-2-((2S,3R)-3-amino-2-hydroxy-4-phenylbutanamido)-2-(5-fluoro-3-(trifluoromethyl)phenyl)acetic acid]",< 100
21,"N[C@H](Cc1ccccc1)[C@H](O)C(=O)N[C@H](C(=O)O)c1cc(F)cc(C(F)(F)F)c1 [Compound 93, (S)-2-((2S,3R)-3-amino-2-hydroxy-4-phenylbutanamido)-2-(5-fluoro-3-(trifluoromethyl)phenyl)acetic acid]",≥ 1000
22,"N[C@H](Cc1ccccc1)[C@H](O)C(=O)N[C@@H](C(=O)O)c1ccc(F)c(C(F)(F)F)c1 [Compound 94, (R)-2-((2S,3R)-3-amino-2-hydroxy-4-phenylbutanamido)-2-(4-fluoro-3-(trifluoromethyl)phenyl)acetic acid]",< 100
23,"N[C@H](Cc1ccccc1)[C@H](O)C(=O)N[C@H](C(=O)O)c1ccc(F)c(C(F)(F)F)c1 [Compound 95, (S)-2-((2S,3R)-3-amino-2-hydroxy-4-phenylbutanamido)-2-(4-fluoro-3-(trifluoromethyl)phenyl)acetic acid]",≥ 1000
24,"N[C@H](Cc1ccccc1)[C@H](O)C(=O)N[C@@H](C(=O)O)c1ccc(F)c(C(F)(F)F)c1F [Compound 96, (R)-2-((2S,3R)-3-amino-2-hydroxy-4-phenylbutanamido)-2-(2,4-difluoro-3-(trifluoromethyl)phenyl)acetic acid]",< 100
25,"N[C@H](Cc1ccccc1)[C@H](O)C(=O)N[C@H](C(=O)O)c1ccc(F)c(C(F)(F)F)c1F [Compound 97, (S)-2-((2S,3R)-3-amino-2-hydroxy-4-phenylbutanamido)-2-(2,4-difluoro-3-(trifluoromethyl)phenyl)acetic acid]",100 to 1000
26,N[C@H](Cc1ccccc1)[C@H](O)C(=O)N[C@@H](Cc1cc(F)c(OC(F)(F)F)c(F)c1)C(=O)O [Compound 98],100 to 1000

# More lines, now with the values ahead:
row,IC50 [nM],Structure (SMILES)
1,≥ 1000,N[C@H](Cc1ccccc1)[C@H](O)C(=O)N[C@@H](Cc1ccc(F)c(OC(F)(F)F)c1)C(=O)O [Compound 99]
2,100 to 1000,N[C@H](Cc1ccccc1)[C@H](O)C(=O)N[C@@H](Cc1ccc(C(F)(F)F)c(Cl)c1)C(=O)O [Compound 100]
3,≥ 1000,N[C@H](Cc1ccccc1)[C@H](O)C(=O)N[C@@H](CC1CCC(F)(F)CC1)c1n[nH]c(=O)o1 [Compound 101]
4,≥ 1000,"N[C@H](Cc1ccccc1)[C@H](O)C(=O)N[C@@H](C(=O)O)c1cc(F)cc(OC(F)(F)F)c1 [Compound 102, (R)-2-((2S,3R)-3-amino-2-hydroxy-4-phenylbutanamido)-2-(3-fluoro-5-(trifluoromethoxy)phenyl)acetic acid]"
5,< 100,"N[C@H](Cc1ccccc1)[C@H](O)C(=O)N[C@H](C(=O)O)c1cc(F)cc(OC(F)(F)F)c1 [Compound 103, (S)-2-((2S,3R)-3-amino-2-hydroxy-4-phenylbutanamido)-2-(3-fluoro-5-(trifluoromethoxy)phenyl)acetic acid]"
6,≥ 1000,"N[C@H](Cc1ccccc1)[C@H](O)C(=O)N[C@@H](C(=O)O)c1ccc(F)c(OC(F)(F)F)c1 [Compound 104, (R)-2-((2S,3R)-3-amino-2-hydroxy-4-phenylbutanamido)-2-(4-fluoro-3-(trifluoromethoxy)phenyl)acetic acid]"
7,< 100,"N[C@H](Cc1ccccc1)[C@H](O)C(=O)N[C@H](C(=O)O)c1ccc(F)c(OC(F)(F)F)c1 [Compound 105, (S)-2-((2S,3R)-3-amino-2-hydroxy-4-phenylbutanamido)-2-(4-fluoro-3-(trifluoromethoxy)phenyl)acetic acid]"
8,≥ 1000,"N[C@H](Cc1ccccc1)[C@H](O)C(=O)N[C@@H](C(=O)O)c1ccc(Cl)c(OC(F)(F)F)c1 [Compound 106, (R)-2-((2S,3R)-3-amino-2-hydroxy-4-phenylbutanamido)-2-(4-chloro-3-(trifluoromethoxy)phenyl)acetic acid hydrochloride]"
9,< 100,"N[C@H](Cc1ccccc1)[C@H](O)C(=O)N[C@H](C(=O)O)c1ccc(Cl)c(OC(F)(F)F)c1 [Compound 107, (S)-2-((2S,3R)-3-amino-2-hydroxy-4-phenylbutanamido)-2-(4-chloro-3-(trifluoromethoxy)phenyl)acetic acid hydrochloride]"
10,≥ 1000,"N[C@H](Cc1ccccc1)[C@H](O)C(=O)N[C@@H](C(=O)O)c1cc(Cl)cc(OC(F)(F)F)c1 [Compound 108, (R)-2-((2S,3R)-3-amino-2-hydroxy-4-phenylbutanamido)-2-(3-chloro-5-(trifluoromethoxy)phenyl)acetic acid hydrochloride]"
11,< 100,"N[C@H](Cc1ccccc1)[C@H](O)C(=O)N[C@H](C(=O)O)c1cc(Cl)cc(OC(F)(F)F)c1 [Compound 109, (S)-2-((2S,3R)-3-amino-2-hydroxy-4-phenylbutanamido)-2-(3-chloro-5-(trifluoromethoxy)phenyl)acetic acid hydrochloride]"
12,≥ 1000,"N[C@H](Cc1ccccc1)[C@H](O)C(=O)N[C@@H](C(=O)O)c1ccc(Br)c(OC(F)(F)F)c1 [Compound 110, (R)-2-((2S,3R)-3-amino-2-hydroxy-4-phenylbutanamido)-2-(4-bromo-3-(trifluoromethoxy)phenyl)acetic acid hydrochloride]"
13,< 100,"N[C@H](Cc1ccccc1)[C@H](O)C(=O)N[C@H](C(=O)O)c1ccc(Br)c(OC(F)(F)F)c1 [Compound 111, (S)-2-((2S,3R)-3-amino-2-hydroxy-4-phenylbutanamido)-2-(4-bromo-3-(trifluoromethoxy)phenyl)acetic acid hydrochloride]"
